Data taken from patent EP0029617A1, “Use of tertiary heterocyclic amines as synergists in pesticides; derivatives of cycloamines” (priority 1979, dated 1981).
Where two headings read alike, the source gives them in different places.

Test system: Kornkäfer (sitophilus granarius L)
Assay: whole plant or invertebrate
Format: in vivo
Details: for mortality at 1000 µg/mL: Sitophilus granarius, read-out: Wirksamkeit in % Substanz allein
Description: Test von tertiären, heterocyclischen Aminen allein und im Gemisch mit Pyrethroiden an Kornkäfern (sitophilus granarius L)
In Petrischalen mit 15 cm Durchmesser mit talcumbepuderten Seitenwänden, um das Entfliehen der Kornkäfer zu verhindern, wurden jeweils 2 ml der Acetonlösungen einpipettiert und durch vorsichtiges Schwenken der Schalen gleichmäßig auf dem Boden verteilt. Nach dem Abdampfen des Acetons und dem Antrocknen der Beläge wurden in jede Schale 25 Kornkäfer eingezählt. Nach einer Stunde wurde jeweils ein 12,5 cm Rundfilter in die Schalen eingelegt, um den Käfern das Befreien aus der Rückenlage zu ermöglichen, was auf der glatten Glasplatte nicht möglich ist. Die lichtscheuen Käfer verkrochen sich mit Vorliebe unter die Filter und blieben so ständig mit den Wirkstoffbelägen in Kontakt. Alle Versuche liefen mit 3 Wiederholungen. Nach 3 h wurden die toten Käfer ausgezählt.
In der Tabelle 3 ist jeweils der Durchschnitt der Summe der 4 Einzelwerte angegeben. 25 tote Kornkäfer entsprechen dabei einer Wirkung von 100 %. Die Temperaturen betrugen während der Tests im Durchschnitt 19 - 21°C. Der synergistische Faktor berechnet sich analog wie in Beispiel 1 angegeben.
Die zu prüfenden tertiären, heterocyclischen Amine wurden - mit 1 mg Wirkstoff pro ml als Acetonlösungen angesetzt. Sie wurden im Verhältnis 1 : 1 mit Ripcord bzw. Talcord, die mit 0,01 mg Wirkstoff pro ml als Acetonlösung vorlagen, gemischt. Die Einzelkomponenten wurden im Verhältnis 1 : 1 mit Aceton gemischt.
Auch bei diesen Versuchen zeigten die Kontrollversuche stets bei Versuchsende eine Mortalität der Kornkäfer von 0 %.
Die synergistische Wirkung der tertiären, heterocyclischen Amine auf die Pyrethroide ist auch dann noch deutlich, wenn das Amin in wesentlich niederen Aufwandmengen eingesetzt wird, als dies in Beispiel 3 beschrieben wurde. Die Ergebnisse sind in der Tabelle 4 zusammengestellt. Dieser Versuch zeigt auch, daß Amine mit insektiziden Eigenschaften, wenn sie in Konzentrationen unterhalb ihres insektiziden Wirkungsbereiches eingesetzt werden, immer noch gute synergistische Wirkungen im Gemisch mit Pyrethroiden zeigen. Die Versuche wurden wie im Beispiel 3 beschrieben mit Kornkäfern durchgeführt. Es wurden lediglich die Konzentrationen der eingesetzten tertiären, heterocyclischen Amine geändert. Für die Verdünnung Pyrethroid : Amin = 1 : 10 wurde das Amin mit 0,1 mg Wirkstoff/ml Acetonlösung eingesetzt. Für die Verdünnung 1 : 5 mit 0,05 mg Wirkstoff/ml.

[1] = amine 1 mg/ml + Ripcord 0,01 mg/ml
[2] = amine 1 mg/ml + Talcord 0,01 mg/ml
[3] = amine 1 mg/ml in Aceton mixed 1 : 1 with Aceton, 2 ml per dish, 25 weevils, dead counted after 3 h
[4] = amine 1 mg/ml mixed 1 : 1 with Ripcord 0,01 mg/ml, 3 h
[5] = amine 1 mg/ml mixed 1 : 1 with Talcord 0,01 mg/ml, 3 h
[6] = sitophilus granarius, in vivo, 3 h

Compound	Synergistischer Faktor bei Ripcord [1]	Synergistischer Faktor bei Talcord [2]	Wirksamkeit in % Substanz allein [3]	Wirksamkeit in % Substanz +Ripcord [4]	Wirksamkeit in % Substanz +Talcord [5]	Synergistischer Faktor bei Ripcord (in vivo)	Synergistischer Faktor bei Talcord (in vivo)	Wirksamkeit in % Substanz +Ripcord [6]	Wirksamkeit in % Substanz +Talcord [6]	Wirksamkeit in % Substanz allein [6] [%]	mortality at 1000 µg/mL [3] [%]	mortality at 1000 µg/mL (3 h) [%]
1-N-p-Menthen-piperidin	1,90	7,42	0%	60,0%	72,0%							
C1CCN(CCOCCOCCN2CCCC2)C1 [1,2-Bis-(2-N-pyrrolidino-ethoxi)-ethan]	3,17	7,13	0%	100,0%	69,2%							
C(CCCN1CCCCC1)CCN1CCCCC1 [1,6-N,N-Di-piperidino-hexan]	2,82		0%	57,2%	2,8%							
C(CCCN1CCCC1)CCN1CCCC1 [1,6-N,N-Di-pyrrolidino-hexan]	2,52	4,24	0%	77,2%	41,2%							
C(CCCCN1CCCCC1)CCCN1CCCCC1 [1,8-N,N-Di-piperidino-octan]			61,2%	90,8%	65,2%							
C(CCCCN1CCCC1)CCCN1CCCC1 [1,8-N,N-Di-pyrrolidino-octan]	2,79	6,60	0%	88,0%	64,0%							
C(CCCCCN1CCCCC1)CCCCN1CCCCC1 [1,10-N,N-Di-piperidino-decan]	2,41	6,06	0%	76,0%	58,8%							
C(CCCCCN1CCCC1)CCCCN1CCCC1 [1,10-N,N-Di-pyrrolidino-decan]	2,54	3,00	0%	80,0%	29,2%							
OC(CCl)CN1CCCCC1 (stereo not shown) [1-N-Piperidino-2-hydroxi-3-chlor-propan]	1,74	5,65	0%	54,8%	54,8%							
OCCC(O)N1CCCC1 (stereo not shown) [1-N-Pyrrolidino-propandiol-(1,3)]	3,17	8,12	0%	100,0%	78,8%							
Oc1cc(CN2CCCCC2)c(O)cc1CN1CCCCC1 [2,5-Bis-(N-piperidino-methyl)-hydrochinon]	1,78	2,47	0%	56,0%	24,0%							
CCOC(=O)C(CC)N1CCOCC1 (stereo not shown) [2-N-Morpholino-buttersäure-ethylester]	1,56	3,30	0%	49,2%	32,0%							
CCOC(=O)C(CC)N1CCCCC1 (stereo not shown) [2-N-Piperidino-buttersäure-ethylester]	1,94	5,36	0%	61,2%	52,0%							
CCCCOC(CN1CCCCC1)OCCCC [2-N-Piperidino-ethyl-dibutyl-acetal]			0%	86,8%	36,0%	2,76	3,71					
O=C1CCCCC1CN1CCCCC1 (stereo not shown) [2-N-Piperidino-methyl-cyclo-hexanon]	1,65	1,65	18,8%	70,8%	34,8%							
c1ccc2cc(CN3CCCCC3)ccc2c1 [2-N-Piperidino-methyl-naphthalin]	3,05	9,07	0%	96,0%	88,0%							
OCCN1CCCC1 [2-N-Pyrrolidino-ethanol]	2,58	5,48	0%	81,2%	53,2%							
COc1cc(C=O)cc(CN2CCCCC2)c1O [3-N-(Piperidino-methyl)-4-hydroxid-5-methoxi-benz-aldehyd]	2,79	4,12	0%	88,0%	40,0%							
C=CC(C)(CCC=C(C)CCC=C(C)C)N1CCCC1 (stereo not shown) [3-N-pyrrolidino-3,7,11-tri-methyl-1,6,10-dodecatrien]	3,00	3,59	0%	94,8%	34,8%							
C#CCN1CCCC1 [3-N-pyrrolidino-propin]	1,61	1,52	0%	50,8%	14,8%							
C=CC(C)(CCC=C(C)C)N1CCCCCC1 (stereo not shown) [6-N-Hexamethylenimino-2,6-dimethyl-octadien-(2,7)]	2,41	7,30	0%	76,0%	70,8%							
c1ccc(C(N2CCCCC2)N2CCCCC2)cc1 [Benzal-di-N,N-piperidin]			0%	40,0%	18,8%	1,26	1,94					
c1ccc(OCCN2CCCC2)cc1 [N-1-2-phenoxiethyl-pyrrolidin]	1,69	2,88	0%	53,2%	28,0%							
CCOCCN1CCCC1 [N-1-(1'-Ethoxiethyl-(2))-pyrrolidin]	2,22		0%	70,0%	0%							
CCCCOCCOCCN1CCCC1 [N-1-(2'-Butoxi-diethyl-ether-(2))-pyrrolidin]						2,47		78,0%	8,9%	0		
CCCCC(CC)CN1CCCC1 (stereo not shown) [N-1-(2-Ethyl)-hexyl-pyrrolidin]	1,78	4,24	0%	56,0%	41,2%							
C=CCN1CCCCC1 [N-1-Allyl-piperidin]	2,32	1,36	0%	73,2%	13,2%							
CCCCCCCCCCN1CCOCC1 [N-1-Decyl-morpholin]	2,32	8,37		73,1%	81,2%						0	
CCCCCCCCCCCCN1CCCCC1C (stereo not shown) [N-1-Dodecyl-2-methyl-piperidin]	1,49	2,06		46,8%	20,0%						0	
CCCCCCCCCCCCN1CC1 [N-1-Dodecyl-ethylenimin]	2,86	3,71		90,0%	36,0%							0
